# Key:
# [1] = Plasma concentration in Duncan Hartley guinea pig at 10 mg/kg, po; type: ADME, organism-based, Cavia porcellus; design: dose 10 mg/kg, route oral; details: in vivo
# [2] = Oral bioavailability in Sprague-Dawley rat at 1 mg/kg; type: ADME, organism-based; details: in vivo
# [3] = Mean residence time in Sprague-Dawley rat at 1 mg/kg, po; type: ADME, organism-based; design: dose 1 mg/kg, route oral; details: in vivo
# [4] = Volume of distribution at steady state in Sprague-Dawley rat at 1 mg/kg, iv; type: ADME, organism-based; design: dose 1 mg/kg, route intravenous; details: in vivo, read-out: Vdss
concentration [1] [nM],bioavailability [2] [%],MRT [3] [h],Vd [4] [L/kg],Structure (SMILES)
1600,42,7.22,14,O=C(N[C@H]1CCC[C@H](CO)C1)C1CCN(c2nc3cc(Cl)c(C(F)(F)F)cc3o2)CC1
1200,59,4.42,3,O=C(N[C@H]1CCC[C@H](CO)C1)C1CCN(c2nc3cc(Cl)c(-c4ccc(Cl)cc4)cc3o2)CC1
,66,0.7,0.72,O=C(N[C@H]1CCC[C@H](CO)C1)C1CCN(c2nc3cc(Cl)ccc3o2)CC1
,17,6.26,2.4,CCOc1ccc(-c2cc3oc(N4CCC(C(=O)N[C@H]5CCC[C@H](CO)C5)CC4)nc3cc2Cl)cc1
510,86,7.78,6.4,O=C(N[C@H]1CCC[C@H](CO)C1)C1CCN(c2nc3cc(Cl)c(-c4ccc(OC(F)(F)F)cc4)cc3o2)CC1
,,0.44,2.1,CCc1cc2oc(N3CCC(C(=O)N[C@H]4CCC[C@H](CO)C4)CC3)nc2cc1Cl
,,0.39,1.4,O=C(N[C@H]1CCC[C@H](CO)C1)C1CCN(c2nc3cc(Cl)c(C(F)F)cc3o2)CC1
154000,,,,COc1ccc2cc([C@H](C)C(=O)O)ccc2c1 [NAPROXEN]

# From ChEMBL document CHEMBL2390914, “Discovery and SAR of PF-4693627, a potent, selective and orally bioavailable mPGES-1 inhibitor for the potential treatment of inflammation” (Bioorg Med Chem Lett, 2013)
